By IC50 is commonly meant the concentration that inhibits the measured activity by half.

This test deals with T1, IRAK4 (Homo sapiens, UniProt Q9NWZ3).
T1 sequence (Q9NWZ3 1-460): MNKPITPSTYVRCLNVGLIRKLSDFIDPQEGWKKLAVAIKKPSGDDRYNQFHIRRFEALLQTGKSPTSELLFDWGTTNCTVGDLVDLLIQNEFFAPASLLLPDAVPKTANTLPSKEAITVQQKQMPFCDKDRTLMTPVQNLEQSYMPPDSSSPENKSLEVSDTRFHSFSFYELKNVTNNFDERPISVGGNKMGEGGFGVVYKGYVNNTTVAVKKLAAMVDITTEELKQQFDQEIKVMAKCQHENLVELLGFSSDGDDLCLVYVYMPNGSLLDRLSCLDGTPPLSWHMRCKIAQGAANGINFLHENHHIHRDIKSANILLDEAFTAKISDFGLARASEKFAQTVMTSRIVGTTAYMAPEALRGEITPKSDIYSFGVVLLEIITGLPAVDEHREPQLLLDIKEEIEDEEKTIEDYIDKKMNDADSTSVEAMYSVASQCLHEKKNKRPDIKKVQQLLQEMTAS
The test can be described thus: IRAK-4 activity inhibition assay (Caliper). Format: biochemical. To be noted: 37 μM ATP, 3.5 nM IRAK4. The procedure: A 1× kinase base buffer was prepared from 50 mM HEPES, pH 7.5 and 0.0015% Brij-35. A stop buffer was prepared from 100 mM HEPES, pH 7.5, 0.015% Brij-35, 0.2% Coating Reagent #3, and 50 mM EDTA.
Test compound was diluted to 50× of the final desired highest inhibitor concentration in reaction by 100% DMSO. 100 μl of this compound dilution was transferred to a well in a 96-well plate.
Test compound was serially diluted by transferring 30 μl to 60 μl of 100% DMSO in the next well and so forth for a total of 10 concentrations. 100 μl of 100% DMSO was added to two empty wells for no compound control and no enzyme control in the same 96-well plate.
A new 96-well plate was marked as intermediate plate. 5 μl of compound serial dilution was transferred from source plate to the corresponding wells of the intermediate plate. 45 μl of 1× kinase base buffer (KB buffer) was added to each well of the intermediate plate. The intermediate plate was placed for 10 min on a shaker.
5 μl of each well was transferred from the 96-well intermediate plate to a 384-well plate in duplicates. […] A2 of the 96-well plate is transferred to A3 and A4 of the 384-well plate, and so on.
IRAK4 and DTT in 1× kinase base buffer was added.
Assay plate already contained 5 μl of compound in 10% DMSO. Added 10 μl of 2.5× enzyme solution to each well of the 384-well assay plate, except no enzyme control wells. […] Added 10 μl of 1× kinase base buffer to no enzyme control wells in the assay plate. Incubated at room temperature for 10 min.
Added 10 μl of 2.5× peptide solution to each well of the 384-well assay plate. […] Incubated at 28° C. for 40 minutes. Added 25 μl of stop buffer to stop reaction. Collected data on Caliper.
Copied conversion % data from Caliper program. Converted conversion % values to percent inhibition values. Percent inhibition=(max−conversion %)/(max−min)*100, where “max” means the conversion % of DMSO control and “min” means the conversion % of no enzyme control.
The compound numbers correspond to the compound numbers in Table 1. […] “NA” stands for “not assayed.”
On to `CC(O)C[C@@H]1CCc2sc3ncnc(O[C@H]4CC[C@H](N5CCOCC5)CC4)c3c2C1` (stereo partly drawn) [Compound I-182, 1-((R)-4-(((1r,4R)-4-morpholinocyclohexyl)oxy)-5,6,7,8-tetrahydrobenzo[4,5]thieno[2,3-d]pyrimidin-6-yl)propan-2-ol], for which the IC50 is less than 5 µM.

Turning to `CC#CCOC[C@H]1CCc2sc3ncnc(O[C@H]4CC[C@H](N(C)C)CC4)c3c21` [Compound I-56, 4-[[(3S)-3-[(but-2-yn-1-yloxy)methyl]-7-thia-9,11-diazatricyclo[6.4.0.0[2,6]]dodeca-1(8),2(6),9,11-tetraen-12-yl]oxy]-N,N-dimethylcyclohexan-1-amine], the half-maximal inhibitory concentration (IC50) was less than 5 µM.

Consider `CC[C@H](O)C[C@H]1CCc2sc3ncnc(O[C@H]4CC[C@H](N(C)CC(=O)N5CCCC5)CC4)c3c21` [Compound I-72, 2-(((1R,4r)-4-(((R)-5-((S)-2-hydroxybutyl)-6,7-dihydro-5H-cyclopenta[4,5]thieno[2,3-d]pyrimidin-4-yl)oxy)cyclohexyl)(methyl)amino)-1-(pyrrolidin-1-yl)ethanone], for which the IC50 is less than 5 µM.

In turn, `CCOC(=O)C1CCc2sc3ncnc(O[C@H]4CC[C@H](N(C)C)CC4)c3c21` (some centres unmarked) [Compound I-4] yielded an IC50 of 20 to 50 µM.

Consider `CN(C)[C@H]1CC[C@H](Nc2ncnc3sc4c(c23)C(CC#N)CC4)CC1` (some centres unmarked) [Compound I-9], for which the IC50 is less than 5 µM.

`O=S(=O)(CCO)N1CCc2sc3ncnc(N[C@H]4CC[C@H](N5CCOCC5)CC4)c3c2C1` [Compound I-185, 2-(3-[[4-(morpholin-4-yl)cyclohexyl]amino]-8-thia-4,6,12-triazatricyclo[7.4.0.0[2,7]]trideca-1(9),2(7),3,5-tetraene-12-sulfonyl)ethan-1-ol] had an IC50 of less than 5 µM.

As to `CN[C@H]1CC[C@H](Oc2ncnc3sc4c(c23)[C@@H](C[C@H]2NC(=O)NC2=O)CC4)CC1` [Compound I-159, (5R)-5-[[(3R)-12-[[4-(methylamino)cyclohexyl]oxy]-7-thia-9,11-diazatricyclo[6.4.0.0[2,6]]dodeca-1(8),2(6),9,11-tetraen-3-yl]methyl]imidazolidine-2,4-dione], the IC50 was less than 5 µM.

With `CN(C)[C@H]1CC[C@H](Oc2ncnc3sc4c(c23)C[C@H](CC(N)=O)CC4)CC1` [Compound I-113, 2-[(12R)-3-[[4-(dimethylamino)cyclohexyl]oxy]-8-thia-4,6-diazatricyclo[7.4.0.0[2,7]]trideca-1(9),2(7),3,5-tetraen-12-yl]acetamide], the IC50 was less than 5 µM.

For `CN(C)[C@H]1CC[C@H](Nc2ncnc3sc4c(c23)C(C(=O)O)CC4)CC1` (some centres unmarked) [Compound I-5, 4-(((1s,4s)-4-(dimethylamino)cyclohexyl)amino)-6,7-dihydro-5H-cyclopenta[4,5]thieno[2,3-d]pyrimidine-5-carboxylic acid], the IC50 lay in the range of 5 to 20 µM.

Compound `CN[C@]1(C)CC[C@@H](Oc2ncnc3sc4c(c23)[C@@H](CC(N)=O)CC4)CC1` [Compound I-156, 2-[(3R)-12-[[4-methyl-4-(methylamino)cyclohexyl]oxy]-7-thia-9,11-diazatricyclo[6.4.0.0[2,6]]dodeca-1(8),2(6),9,11-tetraen-3-yl]acetamide] gave a half-maximal inhibitory concentration (IC50) of less than 5 µM.

Compound `CC(=O)N1Cc2sc3ncnc(O[C@H]4CC[C@H](N5CCOCC5)CC4)c3c2C1` [Compound I-198, 1-(12-[[4-(morpholin-4-yl)cyclohexyl]oxy]-7-thia-4,9,11-triazatricyclo[6.4.0.0[2,6]]dodeca-1(12),2(6),8, 10-tetraen-4-yl)ethan-1-one] yielded an IC50 of 20 to 50 µM.

`NC(=O)C[C@H]1CCc2sc3ncnc(O[C@H]4CC[C@H](N5CCN(Cc6ccccc6)CC5)CC4)c3c21` [Compound I-122, 2-[(3R)-12-[[4-(4-benzylpiperazin-1-yl)cyclohexyl]oxy]-7-thia-9,11-diazatricyclo[6.4.0.0[2,6]]dodeca-1(12),2(6),8,10-tetraen-3-yl]acetamide] had an IC50 of less than 5 µM.

`COC(=O)N1Cc2sc3ncnc(O[C@H]4CC[C@H](N5CCOCC5)CC4)c3c2C1` [Compound I-199, methyl 12-[[4-(morpholin-4-yl)cyclohexyl]oxy]-7-thia-4,9, 11-triazatricyclo[6.4.0.0[2,6]]dodeca-1(12),2(6),8, 10-tetraene-4-carboxylate] yielded an IC50 of 20 to 50 µM.

On to `O=C(O)[C@H]1CCc2sc3ncnc(O[C@H]4CC[C@H](N5CCOCC5)CC4)c3c2C1` [Compound I-234, (12S)-3-[[(1r,4r)-4-(morpholin-4-yl)cyclohexyl]oxy]-8-thia-4,6-diazatricyclo[7.4.0.0[2,7]]trideca-1(9),2(7),3,5-tetraene-12-carboxylic acid], for which the IC50 is less than 5 µM.

Regarding `CC[C@@H](C[C@H]1CCc2sc3ncnc(O[C@H]4CC[C@H](N(C)C)CC4)c3c21)OC` [Compound I-119, (1R,4r)-4-(((R)-5-((S)-2-methoxybutyl)-6,7-dihydro-5H-cyclopenta[4,5]thieno[2,3-d]pyrimidin-4-yl)oxy)-N,N-dimethylcyclohexanamine], the IC50 is less than 5 µM.

As for `CC(=O)N1CCc2sc3ncnc(N[C@H]4CC[C@H](N5CCOCC5)CC4)c3c2C1` [Compound I-172, 1-(3-[[4-(morpholin-4-yl)cyclohexyl]amino]-8-thia-4,6,12-triazatricyclo[7.4.0.0-[2,7]]trideca-1(9),2(7),3,5-tetraen-12-yl)ethan-1-one], the IC50 lay within 5 to 20 µM.

Compound `CC[C@H](O)C[C@H]1CCc2sc3ncnc(N[C@H]4CC[C@H](N(C)C)CC4)c3c21` [Compound I-54] gave an IC50 of less than 5 µM.

On to `CN(C)[C@H]1CC[C@H](Nc2ncnc3sc4c(c23)C(C(=O)NCc2ccccc2)CC4)CC1` (some centres unmarked) [Compound I-24, N-benzyl-12-[[4-(dimethylamino)cyclohexyl]amino]-7-thia-9,11-diazatricyclo[6.4.0.0̂[2,6]]dodeca-1(12),2(6),8,10-tetraene-3-carboxamide], for which the IC50 is 20 to 50 µM.

For the compound `CN(C)[C@H]1CC[C@H](Oc2ncnc3sc4c(c23)C(C(=O)O)CC4)CC1` (some centres unmarked) [Compound I-8, 4-(((1r,4r)-4-(dimethylamino)cyclohexyl)oxy)-6,7-dihydro-5H-cyclopenta[4,5]thieno[2,3-d]pyrimidine-5-carboxylic acid], the IC50 was more than 50 µM.

`CC(=O)N1CCc2sc3ncnc(N[C@H]4CC[C@H](N(C)C)CC4)c3c2C1` [Compound I-173, 1-(3-[[4-(dimethylamino)cyclohexyl]amino]-8-thia-4,6,12-triazatricyclo[7.4.0.0-[2,7]]trideca-1(9),2(7),5-trien-12-yl)ethan-1-one]: the IC50 was in the range of 5 to 20 µM.

In turn, `CN(C)[C@H]1CC[C@H](Oc2ncnc3sc4c(c23)[C@@H](CC(=O)NCC(N)=O)CC4)CC1` [Compound I-58, N-(2-amino-2-oxoethyl)-2-((R)-4-(((1r,4R)-4-(dimethylamino)cyclohexyl)oxy)-6,7-dihydro-5H-cyclopenta[4,5]thieno[2,3-d]pyrimidin-5-yl)acetamide] returned an IC50 of less than 5 µM.

As for `CC[S@+]([O-])C[C@H]1CCc2sc3ncnc(O[C@H]4CC[C@H](N(C)C)CC4)c3c21` (single isomer, unassigned) [Compound I-45], the IC50 was less than 5 µM.

Regarding `CN(C)[C@H]1CC[C@H](Nc2ncnc3sc4c(c23)C(CCO)CC4)CC1` (some centres unmarked) [Compound I-12, 2-(4-(((1r,4r)-4-(dimethylamino)cyclohexyl)amino)-6,7-dihydro-5H-cyclopenta[4,5]thieno[2,3-d]pyrimidin-5-yl)ethanol], the IC50 was less than 5 µM.

Source of the values: US20160193216A1 (Nimbus Iris, Inc., priority 2012, published 2016).
